In US9023354B2, “Combination therapy with MDM2 and EFGR inhibitors” (priority 2010, dated 2015):

Test system: A431 cells
Experiment: A431 cell proliferation assay (MTT), alone and in combination with Tarceva
Type: cell-based
Details: for A431 Cell Proliferation CI Value: combination with Tarceva, CI <0.8 indicates synergy, Example 9, Table 7B; for IC50: Homo sapiens, A-431, A431 cells, further studies, Example 9, Table 7A, read-out: A431 Cell Proliferation (IC50 Value)
Description: This example describes an assay that measures the ability of compounds to inhibit the proliferation of cultured cells. This assay can also be used to assess whether combining two or more compounds produces additive, synergistic, or antagonistic effects on cell growth.
On day 1, the cells were seeded at 10^3 cells per well in 100 μl of complete media under standard conditions.
On day 2, the cells were washed and 100 μl serum free media was added. The cells were then incubated for at least 2 hours before the addition of compound(s). 20 μl of compound(s) was added to the respective wells and incubated at 37° C., 5% CO2 for 72 hrs.
On day 5, 50 μl of the MTT dye solution was added to each well. The plates were incubated at 37° C., 5% CO2 for 1 hr. The media was then aspirated and the cells were resuspended in […] of DMSO. The plates were allowed to incubate for 5 min at room temperature with gentle shaking.
The absorbance in each well was determined at 560 nm using a Polarstar plate reader.
The A431 cell line over-expresses the EGF receptor, and was utilized to assess the ability of AD4 compounds to inhibit EGF-mediated cell proliferation.

SMILES | A431 Cell Proliferation CI Value | IC50
Oc1c(C(Nc2cccnc2)c2cccs2)ccc2cccnc12 (stereo not drawn) [AD4-10315] | 0.79 | –
Oc1c(C(Nc2ccccn2)c2ccc(Cl)cc2Cl)ccc2cccnc12 (stereo not drawn) [AD4-10484] | 0.97 | –
Cc1cccc(NC(c2ccc(OC(F)(F)F)cc2)c2ccc3cccnc3c2O)n1 (stereo not drawn) [AD4-12902] | 0.7 | –
Cc1cccc(NC(c2cccc(C(F)(F)F)c2)c2ccc3cccnc3c2O)n1 (stereo not drawn) [AD4-12903] | 0.67 | –
Cc1cccc(NC(c2cccc(Cl)c2Cl)c2ccc3cccnc3c2O)n1 (stereo not drawn) [AD4-12905] | 0.67 | –
Cc1ccnc(NC(c2cccc(Cl)c2Cl)c2ccc3cccnc3c2O)c1 (stereo not drawn) [AD4-12906] | 0.66 | –
Oc1c(C(Nc2cccnc2)c2cccc(Cl)c2Cl)ccc2cccnc12 (stereo not drawn) [AD4-12908] | 0.64 | 4200 nM
COc1ccc(C(Nc2cccc(C)n2)c2ccc3cccnc3c2O)cc1O (stereo not drawn) [AD4-12909] | 0.54 | –
Oc1c(C(Nc2ccccn2)c2cc(Cl)ccc2Cl)ccc2cccnc12 (stereo not drawn) [AD4-12910] | 0.69 | –
Cc1cccc(NC(c2ccc(Cl)cc2Cl)c2ccc3cccnc3c2O)n1 (stereo not drawn) [AD4-12911] | 0.76 | 1400 nM
Cc1ccnc(NC(c2ccc(Cl)cc2Cl)c2ccc3cccnc3c2O)c1 (stereo not drawn) [AD4-12912] | 0.70 | 1200 nM
Oc1c(C(Nc2ccccn2)c2cc(Cl)cc(Cl)c2)ccc2cccnc12 (stereo not drawn) [AD4-12914] | 0.74 | 1400 nM
Cc1ccnc(NC(c2cc(Cl)cc(Cl)c2)c2ccc3cccnc3c2O)c1 (stereo not drawn) [AD4-12915] | 0.68 | 1100 nM
Cc1ccnc(NC(c2ccc(Cl)c(Cl)c2)c2ccc3cccnc3c2O)c1 (stereo not drawn) [AD4-12917] | 0.54 | –
Cc1cccc(NC(c2ccc3cccnc3c2O)c2c(F)c(F)cc(F)c2F)n1 (stereo not drawn) [AD4-12918] | 0.65 | –
Cc1cccc(NC(c2cc(Cl)cc(Cl)c2Cl)c2ccc3cccnc3c2O)n1 (stereo not drawn) [AD4-13023] | 0.74 | 1800 nM
Oc1c(C(Nc2ccc(C(F)(F)F)cn2)c2ccc(C(F)(F)F)cc2)ccc2cccnc12 (stereo not drawn) [AD4-13028] | 0.76 | 1800 nM
Oc1c(C(Nc2ccc(C(F)(F)F)cn2)c2ccc(F)cc2F)ccc2cccnc12 (stereo not drawn) [AD4-13029] | 0.83 | 1800 nM
Oc1c(C(Nc2ccc(C(F)(F)F)cn2)c2ccc(Cl)c(Cl)c2)ccc2cccnc12 (stereo not drawn) [AD4-13030] | 0.83 | 2000 nM
Oc1c(C(Nc2ccc(C(F)(F)F)cn2)c2ccc(C(F)(F)F)cc2F)ccc2cccnc12 (stereo not drawn) [AD4-13031] | 0.74 | 1600 nM
Oc1c(C(Nc2ccc(C(F)(F)F)cn2)c2ccc(Cl)c(C(F)(F)F)c2)ccc2cccnc12 (stereo not drawn) [AD4-13032] | 0.69 | 1800 nM
Oc1c(C(Nc2ccc(C(F)(F)F)cn2)c2ccc(C(F)(F)F)c(F)c2)ccc2cccnc12 (stereo not drawn) [AD4-13034] | 0.70 | 1900 nM
Cc1cc(Cl)cnc1NC(c1ccc(C(F)(F)F)c(F)c1)c1ccc2cccnc2c1O (stereo not drawn) [AD4-13043] | 0.81 | 2100 nM
Oc1c(C(Nc2ccc(F)cn2)c2cc(C(F)(F)F)ccc2Cl)ccc2cccnc12 (stereo not drawn) [AD4-13049] | 0.84 | 1800 nM
Oc1c(C(Nc2ccc(C(F)(F)F)nc2)c2ccc(C(F)(F)F)c(F)c2)ccc2cccnc12 (stereo not drawn) [AD4-13051] | 0.72 | 1600 nM
Oc1c(C(Nc2ccc(Cl)cn2)c2cc(C(F)(F)F)ccc2Cl)ccc2cccnc12 (stereo not drawn) [AD4-13052] | 0.75 | 1000 nM
Oc1c(C(Nc2ccc(Cl)cn2)c2ccc(Cl)c(Cl)c2)ccc2cccnc12 (stereo not drawn) [AD4-13054] | 0.61 | –
Oc1c(C(Nc2ccc(Cl)cn2)c2ccc(C(F)(F)F)c(F)c2)ccc2cccnc12 (stereo not drawn) [AD4-13055] | 0.75 | 1500 nM

SMILES | A431 Cell Proliferation CI Value | IC50
Oc1c(C(Nc2ccc(C(F)(F)F)cn2)c2cc(C(F)(F)F)ccc2Cl)ccc2cccnc12 (stereo not drawn) [AD4-13056] | 0.63 | 1900 nM
Oc1c(C(Nc2ccccn2)c2ccc(Cl)c(C(F)(F)F)c2)ccc2cccnc12 (stereo not drawn) [AD4-13057] | 0.83 | 1100 nM
Cc1cc(Cl)cnc1NC(c1cc(C(F)(F)F)ccc1Cl)c1ccc2cccnc2c1O (stereo not drawn) [AD4-13058] | 0.50 | –
Cc1cc(Cl)cnc1NC(c1ccc2cccnc2c1O)c1c(F)c(F)cc(F)c1F (stereo not drawn) [AD4-13059] | 0.71 | 1000 nM
Oc1c(C(Nc2cc(Cl)ccn2)c2cc(C(F)(F)F)ccc2Cl)ccc2cccnc12 (stereo not drawn) [AD4-13060] | 0.76 | 1500 nM
Oc1c(C(Nc2ccc(F)cn2)c2ccc(C(F)(F)F)c(F)c2)ccc2cccnc12 (stereo not drawn) [AD4-13061] | 0.79 | 2200 nM
Oc1c(C(Nc2ccc(C(F)(F)F)nc2)c2cc(C(F)(F)F)ccc2Cl)ccc2cccnc12 (stereo not drawn) [AD4-13062] | 0.57 | –
Oc1c(C(Nc2ccc(C(F)(F)F)nc2)c2ccc(C(F)(F)F)cc2)ccc2cccnc12 (stereo not drawn) [AD4-13063] | 0.77 | 4400 nM
Oc1c(C(Nc2ccc(C(F)(F)F)nc2)c2ccc(Cl)c(Cl)c2)ccc2cccnc12 (stereo not drawn) [AD4-13064] | 0.64 | 5100 nM
Oc1c(C(Nc2ccc(C(F)(F)F)nc2)c2ccc(C(F)(F)F)cc2F)ccc2cccnc12 (stereo not drawn) [AD4-13065] | 0.61 | 4600 nM
Oc1c(C(Nc2ccc(C(F)(F)F)nc2)c2ccc(Cl)cc2Cl)ccc2cccnc12 (stereo not drawn) [AD4-13066] | 0.60 | 5400 nM
Oc1c(C(Nc2ccc(Cl)cn2)c2ccc(Cl)c(C(F)(F)F)c2)ccc2cccnc12 (stereo not drawn) [AD4-13067] | 0.63 | –
Cc1cc(Cl)cnc1NC(c1ccc(F)cc1F)c1ccc2cccnc2c1O (stereo not drawn) [AD4-13068] | 0.68 | 5800 nM
Oc1c(C(Nc2cc(Cl)ccn2)c2ccc(Cl)c(Cl)c2)ccc2cccnc12 (stereo not drawn) [AD4-13069] | 0.91 | 920 nM
Oc1c(C(Nc2ccc(F)cn2)c2c(F)c(F)cc(F)c2F)ccc2cccnc12 (stereo not drawn) [AD4-13070] | 0.65 | –
Oc1c(C(Nc2ccc(F)cn2)c2ccc(Cl)c(C(F)(F)F)c2)ccc2cccnc12 (stereo not drawn) [AD4-13071] | 0.70 | 3500 nM
Cc1cccc(NC(c2cccc(Cl)c2Cl)c2ccc3ccc(C)nc3c2O)n1 (stereo not drawn) [AD4-13073] | 0.85 | 1600 nM
Cc1cccc(NC(c2cc(Cl)cc(Cl)c2)c2ccc3ccc(C)nc3c2O)n1 (stereo not drawn) [AD4-13075] | 0.83 | 1400 nM
Cc1cccc(NC(c2cc(Cl)cc(Cl)c2)c2cc(Cl)c3cccnc3c2O)n1 (stereo not drawn) [AD4-13076] | 0.71 | 1400 nM
Cc1ccnc(NC(c2cc(Cl)cc(Cl)c2)c2cc(Cl)c3cccnc3c2O)c1 (stereo not drawn) [AD4-13079] | 0.91 | 1800 nM
Cc1cccc(NC(c2ccc(Cl)c(Cl)c2)c2ccc3ccc(C)nc3c2O)n1 (stereo not drawn) [AD4-13080] | 0.68 | –
Cc1cccc(NC(c2ccc(Cl)cc2Cl)c2ccc3ccc(C)nc3c2O)n1 (stereo not drawn) [AD4-13082] | 0.90 | 1900 nM
Oc1c(C(Nc2ccc(Cl)cn2)c2cccc(Cl)c2Cl)ccc2cccnc12 (stereo not drawn) [AD4-13086] | 0.80 | 1500 nM
Oc1c(C(Nc2ccc(Cl)cn2)c2ccccc2Cl)ccc2cccnc12 (stereo not drawn) [AD4-13087] | 0.70 | 1800 nM
Oc1c(C(Nc2ccc(Cl)cn2)c2ccc(F)cc2Cl)ccc2cccnc12 (stereo not drawn) [AD4-13088] | 0.76 | 1500 nM
Cc1cccc(NC(c2ccc3ccc(C)nc3c2O)c2c(Cl)cccc2Cl)n1 (stereo not drawn) [AD4-13089] | 0.67 | –
Oc1c(C(Nc2ccc(Cl)cn2)c2c(F)cccc2Cl)ccc2cccnc12 (stereo not drawn) [AD4-13091] | 0.89 | 1600 nM
